For assay [1], the system named is STAT-6 phosphorylation in THP-1 cells. Briefly: THP-1 STAT-6/pSTAT-6 Western blot assay. The format is cell-based. As to conditions: Homo sapiens, THP-1, THP-1 cells, IL-4 preincubated with compound, read-out: EC50 of reduction in pSTAT-6 levels. Here is the method: THP-1 cells were maintained in RMPI-1640 with 10% heat-inactivated fetal bovine serum and 50 μM beta-mercaptoethanol. Cells used for assays were between passages 6 and 10. 10 ng/ml IL-4 was preincubated with experimental sample (vehicle, D9 etc) for 2 hours at 37° C. Solutions were then added to 2E6 THP-1 cells in 1 mL. THP-1 cells were incubated for 30 minutes in incubator at 37° C. 5% CO2. Cells were then spun down, lysed with 200 μL ice-cold RIPA buffer complete with phosphatase and protease inhibitors. Cell lysate was incubated on ice for 30 minutes and then stored at −20° C. until western blot analysis. Undiluted cell-lysate was run SDS-PAGE followed by transfer to membrane using Biorad equipment. Membranes were incubated with 1:1000 primary antibody overnight at 4° ° C. Membranes then incubated with 1:50,000 dilution secondary for 1 hour at RT. […] The brightness/contrast was adjusted in […] and the area under the curve of each lane was quantified.
THP-1 cells were maintained in RMPI-1640 with 10% heat-inactivated fetal bovine serum and 50 μM beta-mercaptoethanol. […] The brightness/contrast was adjusted in FIJI (FIGS. 15 and 16) and the area under the curve of each lane was quantified. The ratio of phosphorylated STAT6 to STAT6 was calculated and normalized to the amount of total STAT6. The data was plotted and analyzed using Graphpad Prism 8.
(In general: Immunoblotting shows a protein as a band on a membrane.)

In a further assay the target is T1, IL-4 (Homo sapiens, UniProt P05112).
T1 construct: purchased Acros Biosystems IL4-H4218; host or cells: HEK-293
T1 sequence (P05112 25-153): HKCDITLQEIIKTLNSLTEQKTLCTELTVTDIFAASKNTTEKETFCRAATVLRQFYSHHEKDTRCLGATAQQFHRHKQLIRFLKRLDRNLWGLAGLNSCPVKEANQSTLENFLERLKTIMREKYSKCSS
The assay is described as follows: HEK-Blue IL-4/IL-13 cell-based reporter (SEAP) IL-4 inhibition assay. To be noted: Example 2, quadruplicate; read-out: EC50 of IL-4 inhibition in HEK-Blue IL-4/IL-13 cells. Here is the method:
HEK-Blue IL-4/IL-13 cells were purchased from Invivogen and maintained in DMEM complete with 10% fetal bovine serum, 10 μg/ml of blasticidin and 100 μg/ml of Zeocin, 100 μg/mL Normocin, and 100 U/mL-100 μg/mL Pen-Strep. Cells used for assays were between passages 12 and 18. […] HEK-Blue IL-4/IL-13 cells were trypsinized, spun down, and resuspended in DMEM with 10% heat-inactivated FBS, and 100 U/mL-100 μg/mL Pen-Strep at a concentration of 3.125E5/mL. 160 μL of the cell suspension was added to each well of a 96 well plate, avoiding the edges of the plate and equilibrated in an incubator for 1 hour. After 2 hours, 40 μL of the small molecule/IL-4 solution was added to each well. Each measurement performed in quadruplicate. Cells were incubated for 20 hours at 37° C./5% CO2. Quanti-Blue was prepared according to manufacture and 160 μL added to each well of a 96 well plate, avoiding edges. 40 μL of cell supernatant was added to each well and then incubated for 3 hours at 37° C. The optical density was then read at 650 nm with a Molecular Devices SpectraMax M5 Microplate Reader. Data was plotted and analyzed in GraphPad Prism 8.
HEK-Blue IL-4/IL-13 cells were purchased from Invivogen and maintained in DMEM complete with 10% fetal bovine serum, 10 μg/ml of blasticidin and 100 μg/ml of Zeocin, 100 μg/mL Normocin, and 100 U/mL-100 μg/mL Pen-Strep. Cells used for assays were between passages 12 and 18. Prior to screening small molecules, the SEAP production induced by IL-4 alone was tested in the cells (FIG. 13) and determined to be 0.3 ng/mL. The EC25 for the IL-4 induced SEAP production (0.1 ng/mL final well concentration) was chosen for running small molecule inhibition assays.
For screening small molecules, 25 µL of each molecule (FIG. 9) in DMEM with 4% DMSO was added to 25 μL of 1 ng/ml IL-4 in DMEM and incubated for 2 hours at 37° C. HEK-Blue IL-4/IL-13 cells were trypsinized, spun down, and resuspended in DMEM with 10% heat-inactivated FBS, and 100 U/mL-100 μg/mL Pen-Strep at a concentration of 3.125E5/mL. 160 μL of the cell suspension was added to each well of a 96 well plate, avoiding the edges of the plate and equilibrated in an incubator for 1 hour. After 2 hours, 40 μL of the small molecule/IL-4 solution was added to each well. Each measurement was performed in […]. Cells were incubated for 20 hours at 37° C./5% CO2. Quanti-Blue was prepared according to manufacture and 160 μL added to each well of a 96 well plate, avoiding edges. 40 μL of cell supernatant was added to each well and then incubated for 3 hours at 37° C. The optical density was then read at 650 nm with a Molecular Devices SpectraMax M5 Microplate Reader. Data was plotted and analyzed in GraphPad Prism 8.
HEK-Blue IL-4/IL-13 cells used to screen analogs of compound 52 from ACS Chemical Biology paper (also referred to herein as D9). Assay was run as described in Examples 2 and 3. All compounds were screened at 10 μM, 1 μM, and 250 nM in quadruplicate. The results are depicted in FIGS. 17-21.

The next assay has as its system pSTAT6 in Ramos cells. Briefly: Reduction of pSTAT6 in Ramos cells (Western blot). It counts as cell-based. To be noted: Homo sapiens; Ramos cells (type I receptor complex); read-out: EC50 of pSTAT6 inhibition. Here is the method:
Ramos cells were used as cell-based model of IL-4 inhibition. Ramos cells express type I receptor complex (IL-4Rα and γc)—they were used to confirm that the lead compound D9 (compound 1 in Table 3) inhibits IL-4 signaling in this context as well.
The assay was run as described in Example 2 and 3 for THP-1 cells. Blotting was conducted for pSTAT6 and STAT6 and the percent of pSTAT6 calculated based on total STAT6. All conditions were run in triplicate. The results are depicted in FIGS. 22-23.

SMILES strings stand for the structures.

Regarding `N#Cc1c(-c2ccc(O)c(O)c2)cc(-c2ccc(F)cc2)nc1N` [Compound D9], the results for the EC50 (in assay [1]; on IL-4; in the assay on pSTAT6 in Ramos cells) were 3.1 µM, 5.73 µM and 6.12 µM, respectively.

For the origin of these results see patent US12043621B2, “Small molecule inhibitors of Interleukin-4” (Trustees of Boston University, priority 2020, dated 2024).
